Assay results published in patent US8318757B2, “Substituted isoxazoline compound and pest control agent” (Nissan Chemical Industries, Ltd., priority 2007, dated 2012).

Tests used:
Format in all cases: in vivo
Plutella xylostella = assay: whole plant or invertebrate; details: in Brassica oleracea, 144 h
Method: (§1) A 10% emulsifiable concentrate of the compound of the present invention (depending on the type of the compound, a 10% wettable powder was subjected to the test) was diluted with water containing a spreader to prepare a drug solution in a concentration of 10 ppm. In this drug solution, a leaf of cabbage was immersed for about 10 seconds and was air-dried and then put into a petri dish. In the petri dish, five 2 instar larvae of Plutella xylostella per petri dish were released and the petri dish was capped and stored in a thermostatic room of 25° C. The number of killed larvae after 6 days was measured and the mortality was calculated from the following calculation formula: Mortality (%)=(number of killed insect/number of released insect)×100. Here, the test was carried out on the duplicate samples.

Spodoptera litura = assay: whole plant or invertebrate; details: in Brassica oleracea, 144 h
Method: as §1, with “Spodoptera litura” for “Plutella xylostella”, “same” for “following”, “formula as that in Test Example 1.” for “formula: Mortality (%)=(number of killed insect/number of released insect)×100.”

Tetranychus urticae = assay: whole plant or invertebrate; details: in Phaseolus vulgaris, 144 h
Method: (§2) In a styrol cup having an inner diameter of 7 cm, a wet filtration paper was laid and on the paper, a leaf of kidney bean cut out so as to have the same diameter as the inner diameter of the cup was laid, followed by inoculating ten larvae of Tetranychus urticae per leaf with the leaf. A 10% emulsifiable concentrate of the compound of the present invention (depending on the type of the compound, a 10% wettable powder was subjected to the test) was diluted with water containing a spreader to prepare a drug solution in a concentration of 500 ppm. The drug solution was sprayed using a rotary spray tower in an amount of 2.5 mL per styrol cup, and the cup was capped and stored in a thermostatic room of 25° C. The number of killed larvae after 6 days was measured and the mortality was calculated from the same calculation formula as that in Test Example 1. Here, the test was carried out on the duplicate samples.

Liriomyza trifolii = assay: whole plant or invertebrate; details: in Phaseolus vulgaris, 144 h
Method: A 10% emulsifiable concentrate of the compound of the present invention (depending on the type of the compound, a 10% wettable powder was subjected to the test) was diluted with water containing a spreader to prepare a drug solution in a concentration of 500 ppm. In this drug solution, a leaf of kidney bean which was cut out to a diameter of 7 cm, on which Liriomyza trifolii laid eggs (10 eggs/leaf) was immersed for about 10 seconds and was air-dried and then laid on a wet filtration paper laid in a styrol cup having an inner diameter of 7 cm. The styrol cup was capped and stored in a thermostatic room of 25° C. The number of killed larvae after 6 days was measured and the mortality was calculated from the same calculation formula as that in Test Example 1. Here, the test was carried out on the duplicate samples.

Helicoverpa armigera = assay: Mortality Test for Helicoverpa armigera (Comparative Test); details: in Brassica oleracea, 144 h
Method: 10% emulsifiable concentrates of the compound of the present invention and a comparative compound were diluted with water containing a spreader to prepare drug solutions in a predetermined concentration. In each of the drug solutions, a leaf of cabbage was immersed for about 10 seconds and was air-dried and put into a petri dish. In the petri dish, seven 3 instar larvae of Helicoverpa armigera per petri dish were released and the petri dish was capped with a lid having a pore and stored in a thermostat room of 25° C. After 2 days of the treatment, an artificial fertilizer (1 cm^3) was added into the petri dish. The number of killed larvae after 6 days was measured and the mortality was calculated from the calculation formula: Mortality (%)=(number of killed insect/number of released insect)×100. Here, the test was carried out on the duplicate samples.

Myzus persicae = assay: whole plant or invertebrate; details: in Brassica oleracea, 144 h
Method: In a glass petri dish having an inner diameter of 3 cm, a wet absorbent cotton was laid and on the cotton, a leaf of cabbage cut out so as to have the same diameter as the inner diameter of the petri dish was laid, followed by releasing four apterous imagines of Myzus persicae on the leaf. After one day, a 10% emulsifiable concentrate of the compound of the present invention (depending on the type of the compound, a 10% wettable powder was subjected to the test) was diluted with water containing a spreader to prepare a drug solution in a concentration of 500 ppm. The drug solution was sprayed using a rotary spray tower (2.5 mg/cm^2), and the petri dish was capped and stored in a thermostatic room of 25° C. The number of killed imagines after 6 days was measured and the mortality was calculated from the same calculation formula as that in Test Example 1. Here, the test was carried out on the duplicate samples.

Homona magnanima = assay: Mortality Test for Homona magnanima; details: in Brassica oleracea, 144 h
Method: as §1, with “of 100” for “of 10”, “of Homona magnanima” for “of Plutella xylostella”, “the same” for “the following”, “calculation formula as that in Test Example 1.” for “calculation formula: Mortality (%)=(number of killed insect/number of released insect)×100.”

[1] = system: Frankliniella occidentalis; assay: whole plant or invertebrate; details: in Phaseolus vulgaris, 48 h
Method: as §2, with “ten 1 instar” for “ten”, “Frankliniella occidentalis” for “Tetranychus urticae”, “2” for “6”

Nilaparvata lugens = assay: whole plant or invertebrate; details: in Oryza sativa, 144 h
Method: A 10% emulsifiable concentrate of the compound of the present invention (depending on the type of the compound, a 10% wettable powder was subjected to the test) was diluted with water containing a spreader to prepare a drug solution in a concentration of 500 ppm. In this drug solution, a leaf sheath of rice was immersed for about 10 seconds and was air-dried and then put into a test tube. In the test tube, five 2 instar larvae of Nilaparvata lugens per test tube were released and the test tube was capped with a sponge and stored in a thermostatic room of 25° C. The number of killed larvae after 6 days was measured and the mortality was calculated from the same calculation formula as that in Test Example 1. Here, the test was carried out on the duplicate samples.

Spodoptera exigua = assay: Mortality Test for Spodoptera exigua; details: in Brassica oleracea, 144 h
Method: A 10% emulsifiable concentrate of the compound of the present invention (depending on the type of the compound, a 10% wettable powder was subjected to the test) was diluted with water containing a spreader to prepare a drug solution in a concentration of 100 ppm. In this drug solution, a leaf of cabbage was immersed for about 10 seconds and was air-dried and then put into a petri dish. In the petri dish, five 2 instar larvae of Spodoptera exigua per petri dish were released and the petri dish was capped and stored in a thermostatic room of 25° C. The number of killed larvae after 6 days was measured and the mortality was calculated from the same calculation formula as that in Test Example 1. Here, the test was carried out on the duplicate samples.

In the case of `C[S+]([O-])C(C(=O)NCc1ccc(C2=NOC(c3cc(C(F)(F)F)cc(C(F)(F)F)c3)(C(F)(F)F)C2)cc1Cl)[S+](C)[O-]` (stereo not drawn) [1-211, N-[4-[5-[3,5-bis(trifluoromethyl)phenyl]-5-trifluoromethyl-4,5-dihydroisoxazole-3-yl]-2-chlorophenyl]methyl-2,2-bis(methylsulfinyl)acetamide], the mortality at 100 ppm (Plutella xylostella) is reported as ≥ 80%, the mortality at 100 ppm (Spodoptera litura) is reported as ≥ 80% and the mortality at 100 ppm (Tetranychus urticae) is reported as ≥ 80%. For the same compound, the mortality at 500 ppm (Liriomyza trifolii) was ≥ 80%.

In the case of `COCSCC(=O)NCc1ccc(C2=NOC(c3cc(Cl)c(Cl)c(Cl)c3)(C(F)(F)F)C2)cc1Cl` (stereo not drawn) [1-030, N-[2-chloro-4-[5-(3,4,5-trichlorophenyl)-5-trifluoromethyl-4,5-dihydroisoxazole-3-yl]phenyl]methyl-2-(methoxymethylthio)acetamide], the mortality at 100 ppm (Plutella xylostella) is reported as ≥ 80% and the mortality at 100 ppm (Spodoptera litura) is reported as ≥ 80%.

With `CS(CC(=O)NCc1ccc(C2=NOC(c3cc(Cl)c(Cl)c(C(F)(F)F)c3)(C(F)(F)F)C2)cc1Br)=NC#N` (stereo not drawn) [1-103, N-[2-bromo-4-[5-[3,4-dichloro-5-(trifluoromethyl)phenyl]-5-trifluoromethyl-4,5-dihydroisoxazole-3-yl]phenyl]methyl-2-[N-(cyano)methylsulfinimidoyl]acetamide] the mortality at 100 ppm (Plutella xylostella) was ≥ 80% and the mortality at 100 ppm (Spodoptera litura) was ≥ 80%.

`CSCC(=O)NCc1ccc(C2=NOC(c3cc(Cl)cc(Cl)c3)(C(F)(F)F)C2)cc1Cl` (stereo not drawn) [Comparative compound A] showed a mortality at 1 ppm (Helicoverpa armigera) of 0%, a mortality at 3 ppm (Helicoverpa armigera) of 57.1% and a mortality at 10 ppm (Helicoverpa armigera) of 92.9%. The mortality at 33 ppm (Helicoverpa armigera) was 100%.

`O=C(CSCC(F)(F)F)NCc1ccc(C2=NOC(c3cc(Cl)c(Cl)c(Cl)c3)(C(F)(F)F)C2)cc1Cl` (stereo not drawn) [1-029, N-[2-chloro-4-[5-(3,4,5-trichlorophenyl)-5-trifluoromethyl-4,5-dihydroisoxazole-3-yl]phenyl]methyl-2-(2,2,2-trifluoroethylthio)acetamide] was tested, and the mortality at 500 ppm (Myzus persicae) was ≥ 80%, the mortality at 10 ppm (Plutella xylostella) was ≥ 80% and the mortality at 100 ppm (Homona magnanima) was ≥ 80%. The mortality at 10 ppm (Spodoptera litura) was ≥ 80%, the mortality at 500 ppm [1] was ≥ 80% and the mortality at 500 ppm (Tetranychus urticae) was ≥ 80%. For the same compound, the mortality at 500 ppm (Nilaparvata lugens) was ≥ 80%.

`CCSC(C(=O)NCc1ccc(C2=NOC(c3cc(C(F)(F)F)cc(C(F)(F)F)c3)(C(F)(F)F)C2)cc1Cl)[S+]([O-])CC` (stereo not drawn) [1-220, N-[4-[5-[3,5-bis(trifluoromethyl)phenyl]-5-trifluoromethyl-4,5-dihydroisoxazole-3-yl]-2-chlorophenyl]methyl-2-ethylsulfinyl-2-(ethylthio)acetamide] was tested, and the mortality at 100 ppm (Myzus persicae) was ≥ 80%, the mortality at 100 ppm (Plutella xylostella) was ≥ 80% and the mortality at 100 ppm (Homona magnanima) was ≥ 80%. The mortality at 100 ppm (Spodoptera litura) was ≥ 80%, the mortality at 100 ppm (Tetranychus urticae) was ≥ 80% and the mortality at 500 ppm (Liriomyza trifolii) was ≥ 80%.

In the case of `CCS(=N)(=O)CC(=O)NCc1ccc(C2=NOC(c3cc(C(F)(F)F)cc(C(F)(F)F)c3)(C(F)(F)F)C2)cc1Cl` (stereo not drawn) [1-173, N-[2-chloro-4-[5-[3,5-bis(trifluoromethyl)phenyl]-5-trifluoromethyl-4,5-dihydroisoxazole-3-yl]phenyl]methyl-2-(ethylsulfonimidoyl)acetamide], the mortality at 10 ppm (Plutella xylostella) is reported as ≥ 80%, the mortality at 10 ppm (Spodoptera litura) is reported as ≥ 80% and the mortality at 500 ppm [1] is reported as ≥ 80%. The mortality at 500 ppm (Tetranychus urticae) was ≥ 80% and the mortality at 500 ppm (Liriomyza trifolii) was ≥ 80%.

In the case of `CCSC(C(=O)NCc1ccc(C2=NOC(c3cc(C(F)(F)F)cc(C(F)(F)F)c3)(C(F)(F)F)C2)cc1Cl)S(=O)(=O)CC` (stereo not drawn) [1-225, N-[4-[5-[3,5-bis(trifluoromethyl)phenyl]-5-trifluoromethyl-4,5-dihydroisoxazole-3-yl]-2-chlorophenyl]methyl-2-ethylsulfonyl-2-(ethylthio)acetamide], the mortality at 500 ppm (Myzus persicae) is reported as ≥ 80%, the mortality at 100 ppm (Plutella xylostella) is reported as ≥ 80% and the mortality at 100 ppm (Spodoptera litura) is reported as ≥ 80%. For the same compound, the mortality at 500 ppm (Tetranychus urticae) was ≥ 80%.

`CSCC(=O)NC(C)c1ccc(C2=NOC(c3cc(C(F)(F)F)cc(C(F)(F)F)c3)(C(F)(F)F)C2)cc1` (stereo not drawn) [1-001, N-[1-[4-[5-[3,5-bis(trifluoromethyl)phenyl]-5-trifluoromethyl-4,5-dihydroisoxazole-3-yl]phenyl]ethyl]-2-(methylthio)acetamide] was tested, and the mortality at 500 ppm (Myzus persicae) was ≥ 80%, the mortality at 10 ppm (Plutella xylostella) was ≥ 80% and the mortality at 100 ppm (Homona magnanima) was ≥ 80%. The mortality at 10 ppm (Spodoptera litura) was ≥ 80%, the mortality at 500 ppm [1] was ≥ 80% and the mortality at 500 ppm (Tetranychus urticae) was ≥ 80%. For the same compound, the mortality at 500 ppm (Nilaparvata lugens) was ≥ 80% and the mortality at 100 ppm (Spodoptera exigua) was ≥ 80%.
